Measured values published in patent US6930103B2, “Use of vasopeptidase inhibitors in the treatment of metabolic diseases, nephropathy and advanced glycation end-product associated diseases” (Aventis Pharma Deutschland GmbH, priority 2002, dated 2005).

Columns and labels:
Assay type in all cases: in vivo, rat
[1] = system: Wistar rats; assay: Albumin and creatinine excretion in Wistar rats (non-diabetic nephropathy); settings: for Albumin/Creatinine: Wistar rats, start at age 6 months, mean
Description: The albumin and creatinine excretion in Wistar rats was determined. One group was left untreated, one was treated with the ACE/NEP inhibitor of formula (II-B) and one group was treated with the ACE inhibitor ramipril. Wistar rats are non-diabetic and develop proteinuria and structural kidney damage during adult life. Wistar rats are therefore a model for non-diabetic nephropathy. [table]

[2] = system: Goto-Kakizaki (GK) rats; assay: Albumin and creatinine excretion in Goto-Kakizaki (GK) rats; settings: start at age 6 months, mean
Description: The albumin and creatinine excretion in Goto-Kakizaki (GK) rats was determined. GK rats are a model for Type II diabetes. One group was left untreated, one was treated with the ACE/NEP inhibitor of formula (II-B) and one group was treated with the ACE inhibitor ramipril. [table]

[3] = system: fat ZDF rats; assay: Histological examination of kidneys of ZDF rats after 6 months treatment; set-up: Armanni-Ebstein cells MEAN SEVERITY / Glomerulosclerosis MEAN SEVERITY / Atrophy: renal tubule MEAN SEVERITY / Casts: renal tubule MEAN SEVERITY: scale not given here
Description: The protein and creatinine excretion in the urine of male Zucker Diabetic Fatty (ZDF) Rats (ZDF Gmi fa/fa) and heterozygous control animals (ZDF Gmi −/+) of 10, 17, 27 and 37 weeks age was determined. In further groups, diabetic rats were chronically given either ramipril (1 mg/kg/day, in drinking water) or a compound of formula (II-B) (30 mg/kg/day, in food) over a period from 10 to 37 weeks. The animals were sacrificied after 37 weeks, and their kidneys examined histologically.
In the attached tables a summary of the findings on the kidneys after a treatment period of 6 months is listed.

[4] = system: Zucker diabetic fatty rats; assay: Blood glucose analysis in ZDF rats; settings: for blood glucose, mean: ZDF rats
Description: (§1) Blood glucose and HbA1c was measured in 10- and 17-week-old male Zucker diabetic fatty rats (Genetic Model Inc.), control rats (Genetic Model Inc.) and male ZDF rats treated for seven weeks with 30 mg/kg/d of compound (II-B), 35 mg/kg/d of compound (III-B) and 1 mg/kg/d ramipril. Fifteen animals were analyzed in each group.
Blood samples for glucose determination were obtained from ZDF rats using standard sampling tubes. Within 30 minutes of collection, samples were separated from the cells by centrifugation. Quantitative determination of blood glucose in serum was performed with an enzymatic in vitro test from Roche Diagnostics GmbH (Gluco-quant, Roche Diagnostics GmbH) using the automated clinical chemistry analyzer Boehringer Mannheim/Hitachi 912.

[5] = system: Zucker diabetic fatty rats; assay: HbA1c analysis in ZDF rats; settings: for HbA1c, mean: ZDF rats
Description: as §1
To obtain blood samples for HbA1c determination, disposable capillary tubes were used. HbA1c values were obtained from hemolyzed whole blood samples with a turbidimetric inhibition immunoassay (Tina-quant, Roche Diagnostics GmbH) and hemoglobin concentrations were determined in a second channel on an automated clinical chemistry analyzer (Boehringer Mannheim/Hitachi 912). HbA1c concentration in percent were calculated from HbA1c to total hemoglobin.

[6] = system: ZDF rats; assay: Urinary albumin/creatinine in ZDF rats, treatment starting at an animal age of 6 months; settings: start at age 6 months, mean
[7] = system: ZDF rats; assay: Dot blot analysis of kidney AGE subtypes (CML, CEL, pentosidine) in ZDF rats
Description: Kidney AGE values were determined by Dot blot analysis (Stracke et al., Exp. Clin. Endocrinol. Diabets 2002, 109, 330-336) and Reversed-phase high performance liquid chromatography or RP-HPLC (Drusch et al., Food Chem. 1999, 65, 547-553).
Kidney-samples for the dot blot analysis were obtained from 17-week-old male ZDF rats, control rats and ZDF rats treated for seven weeks with 30 mg/kg/d of compound (II-B) and 35 mg/kg/d of compound (III-B). Three animals of each group were sacrificed, the kidneys removed and immediately frozen in liquid nitrogen. Grinding of the kidneys was performed in liquid nitrogen using a freezer mill (Freezer 6750, C3 Analysetechnik GmbH). Kidney sample (10 mg) was dissolved in 1 ml phosphate buffered saline (PBS containing 0.5 g/l Tween 20, 0.5 mM PMSF, […]). The solution was treated two times for five seconds with an ultrasonic cell disrupter (45% power, Bandolin Sonoplus HD 2070), centrifuged for 20 minutes at 4000 rpm and the supernatant was used for dot blot analysis. The nitrocellulose membrane was placed in the dot blot apparatus and washed twice with Tris Buffered Saline (TBS), 100 μl TBS/well. For each sample, 10 μg protein (protein concentration of the samples were determined with the DC Protein Assay, Bio Rad) was diluted in 100 μl TBS and loaded on to the nitrocellulose membrane (Amersham). The membrane was incubated over night in TBS with Tween 20 (TBST; 20 mM Tris, 137 mM NaCl, 0.05% v/v Tween 20) with 5% non-fat dry milk at 4° C. and incubated for 1 hour at room temperature using the following antibody concentration: anti-CML 011 (Biologo) 0.25 μg/ml, anti-CEL (Biologo) 0.25 μg/ml and anti-pentosidine 012 (Biologo) 0.25 μg/ml. After extensive washing in TBST with 5% non-fat dry milk, membranes were exposed to […] anti-mouse IgG antibodies (Dianova) for one hour at room temperature. Membranes were washed again and exposed to the enhanced chemofluorescence detection system (Amersham) according to manufacturer's instructions. Relative fluorescence was determined with the Fluor-Imager 595 (Molecular Dynamics) and quantified using the Image-Quant software. Results were expressed in relative fluorescence (rf) times 10^5 (rf*10^5).

[8] = kidneys, male fat ZDF rats, terminal sacrifice
[9] = kidneys, male fat ZDF rats, terminal sacrifice, examined: D1 9, D4 8
[10] = kidneys, male fat ZDF rats, terminal sacrifice, examined: D1 9, D4 8, listed as compound (II-B)
[11] = age 10 weeks (start of treatment)
[12] = age 17 weeks (treated for seven weeks)
[13] = 17-week-old ZDF rats treated for seven weeks, dot blot

CC(=O)S[C@H](C(=O)N[C@H]1Cc2ccccc2[C@H]2CCC[C@@H](C(=O)O)N2C1=O)C(C)C [cpd. (II-B)]
Albumin/Creatinine ([1]; 6 weeks treatment): 18.07 mg/mmol | Albumin/Creatinine ([1]; 12 weeks treatment): 21.21 mg/mmol | Albumin/Creatinine ([1]; Basal): 130.45 mg/mmol | Nephroprotective effect compared with ramipril as determined by the extent of proteinuria ([1]; non-diabetic model, in words): significantly higher nephroprotective effect than ramipril | Albumin/Creatinine ([2]; 6 weeks treatment): 17.70 mg/mmol | Albumin/Creatinine ([2]; 12 weeks treatment): 24.28 mg/mmol | Albumin/Creatinine ([2]; Basal): 103.95 mg/mmol | Armanni-Ebstein cells GRADE 2: number of animals [3, 8]: 5 | Armanni-Ebstein cells GRADE 3: number of animals [3, 8]: 3 | Armanni-Ebstein cells MEAN SEVERITY [3, 8]: 2.4 | Atrophy: renal tubule GRADE 1: number of animals [3, 8]: 1 | Atrophy: renal tubule GRADE 3: number of animals [3, 8]: 1 | Atrophy: renal tubule MEAN SEVERITY [3, 8]: 2.0 | Casts: renal tubule GRADE 1: number of animals [3, 8]: 2 | Casts: renal tubule GRADE 2: number of animals [3, 8]: 1 | Casts: renal tubule MEAN SEVERITY [3, 8]: 1.3 | Glomerulosclerosis GRADE 1: number of animals [3, 8]: 1 | Glomerulosclerosis GRADE 3: number of animals [3, 8]: 1 | Glomerulosclerosis MEAN SEVERITY [3, 8]: 1.0 | Armanni-Ebstein cells: number of animals with finding (total affected) [3, 9]: 8 | Atrophy: renal tubule: number of animals with finding (total affected) [3, 9]: 2 | Casts: renal tubule: number of animals with finding (total affected) [3, 9]: 3 | Glomerulosclerosis: number of animals with finding (total affected) [3, 9]: 1 | Atrophy: renal tubule: number of animals with finding (total affected) [3, 10]: low incidences | Casts: renal tubule: number of animals with finding (total affected) [3, 10]: low incidences | Glomerulosclerosis: number of animals with finding (total affected) [3, 10]: not present | Dilatation: pelvis GRADE 2: number of animals ([3]; rat, in vivo): 1 | Dilatation: pelvis GRADE 3: number of animals ([3]; rat, in vivo): 5 | Dilatation: pelvis GRADE 4: number of animals ([3]; rat, in vivo): 1 | Dilatation: pelvis MEAN SEVERITY ([3]; rat, in vivo): 3.0 | Blood glucose concentration compared to the untreated ZDF rats ([4]; 17-week-old ZDF rats, in words): significantly lower | blood glucose, mean [4, 11]: 10.67 mM | blood glucose, mean [4, 12]: 21.09 mM | Blood glucose value compared with the ACE inhibitor ramipril ([4]; in words): lower values | HbA1c values compared to the untreated ZDF rats ([5]; 17-week-old ZDF rats, in words): significantly lower | HbA1c, mean [5, 11]: 5.69% | HbA1c, mean [5, 12]: 8.24% | HbA1c value compared with the ACE inhibitor ramipril ([5]; in words): lower values | Albumin/Creatinine ([6]; 6 weeks treatment): 135.08 mg/mmol | Albumin/Creatinine ([6]; 12 weeks treatment): 100.86 mg/mmol | Albumin/Creatinine ([6]; Basal): 1330.99 mg/mmol | AGE-subtype CEL in the kidneys (anti-CEL), mean [7, 13]: 50.24 rf * 10^5 | AGE-subtype CML in the kidneys (anti-CML 011), mean [7, 13]: 32.62 rf * 10^5 | AGE-subtype pentosidine in the kidneys (anti-pentosidine 012), mean [7, 13]: 44.99 rf * 10^5 | Kidney AGE (Nε-(carboxymethyl)lysine or CML) values ([7]; diabetic rats, summary in words): normalizes | AGE values for subtype CEL compared to untreated ZDF rats ([7]; kidney, dot blot, in words): significantly less | AGE values for subtype CML compared to untreated ZDF rats ([7]; kidney, dot blot, in words): significantly less | AGE values for subtype pentosidine compared to untreated ZDF rats ([7]; kidney, dot blot, in words): significantly less
